Measured values published in patent publication US20240252670A1, “ANTIBODY DRUG CONJUGATE, PREPARATION METHOD THEREFOR AND APPLICATION THEREOF” (TSINGHUA UNIVERSITY, priority 2021, published 2024).

What was measured:
[1] = test system: MC38 cells; assay: Internalization of pHrodo red labeled anti-PD-L1 THIOMAB in cancer cells (IncuCyte); format: cell-based, mouse; details: 24 h, pHrodo red labeled antibody, control 84.88
Method: (§1) After MC38 and B16 cells were treated for 24 hours with anti-PD-L1 THIOMAB labeled with pHrodo™ red dye, A. high-definition phase images, red fluorescence images and combined images of cells were collected by using an IncuCyte® viable cell system; B. a total red object integrated intensity histogram was obtained by analysis using IncuCyte® software, wherein the logarithm of 10 was taken for the ordinate data. Student's t test was used to compare significant differences between the groups, and p<0.0001 is represented by ****.
(§2) The pHrodo™ red dye is known to be a pH sensitive fluorescent dye, which rapidly increases in molecular fluorescence intensity when the surrounding environment becomes acidic (Lehrman et al., 2018). When the dye was internalized into the cells along with the antigen-antibody complex, the pH of the environment around the dye was reduced to acidity, thereby producing an observable fluorescence signal. This property allowed the internalization process of the antibody to be monitored by using the pHrodo™ red dye. Through the IncuCyte® viable cell analysis system, the inventors could perform image-based monitoring and quantitative analysis on the internalization process of the anti-PD-L1 antibody labeled with the pHrodo™ red dye. […]

[2] = test system: B16 cells; assay: as above; format: cell-based, mouse; details: 24 h, pHrodo red labeled antibody, control 98.53
Method: as §1, §2

[3] = test system: B16 melanoma; assay: Anti-tumor activity in B16 melanoma mouse model; format: in vivo; details: B16 mice, i.p.; antibody drugs 150 μg, D18 25 μg per mouse; dosing to day 21
From the text: A. Treatment with ADC HE-S2, single administration of anti-PD-L1 antibody, D18, or anti-PD-L1 THIOMAB, and anti-PD-L1 antibody/D18 combined administration for inhibitory activity against mouse MC38 tumor growth. B. Whole animal survival study. The ordinate of the curve represents the percentage of tumor-bearing mice that remained alive after different days, and the abscissa thereof represents the number of experimental days. C. Treatment with ADC HE-S2, single administration of anti-PD-L1 antibody, D18, or anti-PD-L1 THIOMAB, and anti-PD-L1 antibody/D18 combined administration for inhibitory activity against mouse MC38 tumor growth. Student's t test was used to compare significant differences between the groups, and p<0.001 is represented by ***.
B16 melanoma is a tumor with low PD-L1 level and certain drug resistance to PD-1/PD-L1 blocking treatment. As a result, as expected by the inventors, the inhibitory effect of each drug on B16 melanoma was reduced relative to the MC38 tumor.
Dosage: Antibody drugs, administered 150 μg per mouse for each time, and D18, administered 25 μg per mouse for each time. - means no administration on the day. * Only mice with MC38 tumor model were allowed to be administered until the 24th day, and mice with B16 tumor model were no longer administered after the 21st day.

[4] = test system: wild-type DC 2.4 cells and Cd274 knockout DC 2.4 cells; assay: Internalization and selectivity in DC cells, IncuCyte intensity-time curves with FBS or mouse serum blocking; format: cell-based
Method: The total red object integrated intensity-time variation curves for anti-PD-L1 THIOMAB labeled with pHrodo™ red dye in the wild-type DC 2.4 cell line and the Cd274 knockout DC 2.4 cell line. […] After addition of labeled anti-PD-L1 antibody, incubation was performed for 30 minutes at 4° C. to allow complete binding of antigen and antibody. The internalization of the antibodies was then analyzed by using the IncuCyte® viable cell system. A. Cells were cultured in a culture medium containing 10% FBS. B. Cells were cultured in a culture medium containing 10% mouse serum. C. After 6 hours, high-definition phase images, red fluorescence images and combined images of DC 2.4 cells were collected by using the IncuCyte® viable cell system. Student's t test was used to compare significant differences between the groups, and p<0.0001 is represented by ****.
To verify this hypothesis, the inventors used 10% mouse serum and 10% FBS as blocking agents which were added to cell culture media in groups, respectively. Relative to FBS, murine IgG enriched in mouse serum could block Fcγ receptors on the surface of DC 2.4 more effectively, thereby inhibiting the antibody internalization process mediated by Fcγ receptors on DC cells. […]

“anti-PD-L1 THIOMAB: mutant avelumab, light chain V205C (SEQ ID NO: 9), heavy chain SEQ ID NO: 4; pHrodo red labeled in internalization tests” was tested, and the “total red object integrated intensity” value [1] was 13701.63, the “total red object integrated intensity” value [2] was 283613.60 and the “inhibitory effect on B16 melanoma” value [3] was “almost comparative to that of the IgG isotype antibody”. For the same substance, the “fluorescence intensity variation curves, wild-type vs Cd274 knockout DC 2.4 cells” value ([4]; 10% FBS blocking) was “very similar fluorescence intensity variation curves” and the “speed of increase in total red object integrated intensity in wild-type DC cells vs Cd274 knockout DC cells” value ([4]; 10% mouse serum blocking, p<0.0001) was “significantly higher”.
